Reference: the METLIN SMRT retention time set (Domingo-Almenara et al. 2019)

Experiment: gradient 5% acetonitrile 3 min, to 50% in 2 min, to 85% in 15 min, held 3 min, 100 µL/min
Settings: column: Zorbax Extend-C18 2.1 x 50 mm; eluents: water / acetonitrile, 0.1% formic acid
Method in brief: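 Retention times of pure standards were taken from adduct peaks that were selected by computer and manually inspected. Over 3 months, mixtures of ~100 molecules were run by HPLC–quadrupole time-of-flight mass spectrometry in positive and negative ionization mode. The Zorbax Extend-C18 column (2.1 × 50 mm, 1.8 μm) ran at 100 μL/min in water and acetonitrile, each containing 0.1% formic acid, with 40 μL dead volume and 900 μL dwell volume.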

SMILES	RP-LC retention time [s]
CCOC(=O)c1ccc(NC(=O)Cn2c(=O)nc(N3CCCC(C)C3)c3ccccc32)cc1 (centres undefined)	872
Cc1noc(C)c1CC(=O)N1CCCC(c2nnc3n2CCN(C(=O)C2CC2)C3)C1 (centres undefined)	596
Cc1c(CCN)ccc2c1[nH]c1ccccc12	697
O=C(c1cccnc1)N1CCN(C(=O)c2nnn3c2COC(c2ccc(Cl)cc2)C3)CC1 (centres undefined)	692
c1ccc(-c2nc3cc(-c4noc(-c5ccccn5)n4)ccc3o2)cc1	1120
CCOC(=O)C1=C(C)NC2=C(C(=O)C(C(=O)OC)C(C)C2)C1c1cccc(F)c1 (centres undefined)	908
CCC(=O)N1CCN(c2ccc(=O)n(-c3ccc(C(C)C)cc3)n2)CC1	780
Cn1cc(-c2ccncc2)cc1C(=O)N1CCN(c2ccccc2)CC1	624
CCOC(=O)N1CCC(Nc2c(C(=O)OC)c(=O)[nH]c3ccc(F)cc23)CC1	705
O=C(Nc1nc2ccccc2s1)c1ccc(S(=O)(=O)N2CCc3ccccc32)cc1	1040
NC(=O)C1(N2CCCCC2)CCN(C(=O)c2cc3ccc4cccnc4c3[nH]2)CC1	574
CCc1nnc2ccc(-c3noc(-c4ccc(Cl)cc4)n3)cn12	1050
COc1ccc(-c2nc3cc(C)ccn3c2NC(=O)COc2ccc(Cl)cc2)cc1OC	714
COC[C@@H]1CN(S(=O)(=O)c2ccc(F)cc2)C[C@H]1c1ccccn1	745
COc1cc(NC(=O)CCl)ccc(=O)c1	631
CCOc1ccc(NS(=O)(=O)c2cc(-c3cc(C(F)(F)F)on3)sc2C)cc1	1120
Cc1noc(C)c1CC(=O)N1CC(F)(F)C[C@H]1COc1ccc2c(c1)CCC2	1060
CCc1ccc(-c2cc(C(F)(F)F)on2)cc1S(=O)(=O)N1CCN(c2ncccn2)CC1	1230
COc1ccc(-c2cc(N3CCC(NC(=O)c4cc(OC)c(OC)c(OC)c4)C3)n[nH]2)cc1 (centres undefined)	688
CCc1noc(-c2ccc(-n3ncc(C(=O)NC(C)C)c3C)nc2)n1	837

SMILES	RP-LC retention time [s]
Clc1ccc(-c2nc(N3CCC(N4CCCCC4)CC3)c3ccccc3n2)cc1	616
CCCN1CCN(C(=O)CCc2c(C)c(C(=O)OCC)c(C)n2CC)CC1	645
CCOC(=O)c1c(C)[nH]c(CCC(=O)NC(C)c2ccccc2)c1C (centres undefined)	853
Cc1noc(CNC(=O)Cc2ccc(F)cc2)n1	643
O=C(Nc1ccc(C(F)(F)F)cc1)N1CCCC1c1nncn1C1CCCC1 (centres undefined)	781
Cc1ccc(S(=O)(=O)NCCCC(=O)NCc2ccccc2)cc1	732
Cc1nnc(-c2ccc3ccn(CC(=O)Nc4ccccc4Cl)c3c2)o1	963
Cc1ccccc1Nc1c(-c2ccc(Cl)cc2)nc2ncccn12	908
Cn1nc(C(=O)N2CCCCC2)c2c1CCN(C(=O)CCC(=O)NC1CCCC1)C2	666
COc1ccc(-c2ccc(=O)n(Cc3nc(-c4ccccn4)no3)n2)cc1	780
O=S1(=O)N=CN(c2ccc3c(c2)CCC3)c2ncccc21	862
COc1ccc(-c2ccc(/C=C3/SC(N4CCCCC4)=NC3=O)o2)cc1	1020
CCOc1cc(=O)c(C(N)=O)nn1-c1ccc(F)c(F)c1	637
COc1cc(OC)cc(-n2nnc(-c3nsc(Nc4ccc(OC)c(OC)c4)n3)c2C)c1	933
O=c1ccc(-c2ccc3c(c2)OCO3)nn1CCc1nc(-c2ccc(Cl)cc2)no1	1040
CC1Oc2ccc(S(=O)(=O)N3CCC(C(=O)NCc4ccc(Cl)cc4)CC3)cc2NC1=O (centres undefined)	846
Cc1cnn(CC(=O)N2CCC3(CC2)CC(C)(O)CCO3)c1 (centres undefined)	603
CC(C)CC(C)NC(=O)c1ccc(CN2C(=O)C3CCCN3C(=O)c3ccccc32)cc1 (centres undefined)	836
COc1ccc(-c2noc(C3CCCN3C(=O)c3ccc(Cl)cc3OC)n2)cc1OC (centres undefined)	934
COC(=O)c1cc(S(=O)(=O)N2CCCC2C(=O)Nc2ccc(C)c(C)c2)cn1C (centres undefined)	939

SMILES	RP-LC retention time [s]
Cc1ccc(-n2nc(N3CCN(C(=O)Nc4ccc(Cl)cc4)CC3)ccc2=O)cc1	894
CCn1c(N2CCCC(C(=O)N3CCN(Cc4ccc5c(c4)OCO5)CC3)C2)cc(=O)n(C)c1=O (centres undefined)	616
Cc1ccc(-c2nc3ccccc3[nH]2)cc1NC(=O)C1CCCO1 (centres undefined)	615
CC(C)CCNC(=O)C1CCN(Cc2cc3ccccc3n2Cc2cccc(Cl)c2)CC1	845
O=C(NCc1ccco1)c1ccc2c(c1)CCCN2C(=O)c1ccc(Cl)cc1	852
O=C(NCC1(c2cccs2)CCOCC1)c1cc(=O)c2ccccc2o1	716
COc1ccc(-c2nc(-c3ccc4c(c3)oc(=O)n4C)no2)c(C)c1	1100
O=C(Nc1nnc(C2CCCO2)o1)c1ccc([N+](=O)[O-])s1 (centres undefined)	685
CC(C)COc1cc(=O)n2c(c1C(=O)N1CCOCC1)CCCCC2	656
COc1ccc(OC)c(CNC(=O)c2cn3cc(C)ccc3n2)c1	694
Cc1cc(-c2nnc(-c3ccccc3)o2)c(C)n1CC(=O)NC1CCCC1	886
CCN(Cc1ccncc1)C1CN(C(=O)c2ccc3ncccc3c2)C1	560
COc1ccc(CNC(=O)c2cc(-c3ccccc3)ns2)cc1	905
O=C(c1cc(F)ccc1F)N1CCN(c2cc(-c3ccc(Cl)cc3)[nH]n2)CC1	847
CS(=O)(=O)N1CCC(C(=O)Nc2ccc(Br)cc2)Oc2ccccc21 (centres undefined)	980
COc1ccc2c(c1)-c1nc(NC(=O)c3cc(Cl)ccc3OC)sc1CC2	1300
CC(=O)N1CCc2cc(C(=O)N3CCCC3)ccc21	869
Cc1ccc(CNC(=O)c2ccc(NC(=O)C3CC3)cc2N2CCOCC2)o1	768

Continued, values first:

RP-LC retention time [s]	SMILES
1190	CCOc1nc2ccccc2nc1N1CCCC(C(=O)Nc2ccc(F)cc2)C1 (centres undefined)
680	COc1ccc(F)cc1S(=O)(=O)N1CCCC(Cn2c(C)nc3cccnc32)C1 (centres undefined)
734	Cc1ccc(Cn2cc(-c3ccncc3)cc2C(=O)NCc2cccs2)cc1
727	CC(=O)c1ccc(NC(=O)C(C)Oc2ccc(=O)n(-c3ccc(F)cc3)n2)cc1 (centres undefined)
794	COc1ccc2c(C)c(C(=O)Nc3ccc4cn[nH]c4c3)oc2c1
769	Cc1cc(-c2nnc(C3CC3)o2)c(C)n1CC(=O)NCc1ccccc1Cl
696	CCc1c(C2CCN(C(=O)c3ccc4c(c3)OCO4)CC2)noc1N
792	O=C(C1CCN(S(=O)(=O)c2ccc(-c3noc(-c4ccccn4)n3)cc2)CC1)N1CCCC1
657	CC(C)CNc1nnc(-c2nc(C3CC3)no2)c2ccccc12
741	Cc1ccc2[nH]cc(CCNC(=O)C3CCCN(c4nccc(C)n4)C3)c2c1 (centres undefined)
626	CC(=O)N1C[C@@H](C(=O)NCCCc2c(C)noc2C)[C@H](c2nc(C)no2)C1
878	O=C(NCc1csc(-c2cccs2)n1)C1CCN(C(=O)CCC2CCCC2)CC1
763	Cc1cc(C)n(-c2ccc(=O)n(CCNS(=O)(=O)c3ccccc3C(F)(F)F)n2)n1
753	Cc1ccc(C)c(CNC(=O)C2CC(=O)N(c3ccc4oc(C)nc4c3)C2)c1 (centres undefined)
651	CN(C)CCn1c2c(c(SCC(=O)Nc3cccc(Cl)c3)nc1=O)CCC2
566	Cn1c(C2CCC(CNC(=O)Cn3c(=O)oc4ccccc43)CC2)nc2ccccc21 (centres undefined)

RP-LC retention time [s]	SMILES
865	Cc1ccc(CNC(=O)CCc2conc2-c2ccccc2)o1
1060	Cc1cc(Cl)ccc1OCc1nc2c3ccccc3ncn2n1
780	CC(C)(C)C(=O)C(Oc1ccc(Cl)cc1)n1ccnc1 (centres undefined)
1140	CCn1ccc(C(=O)Nc2cc(Cl)ccc2Cl)n1
1020	Cc1cccc(Oc2nccnc2N2CCC(C(=O)NC(C)c3ccccc3)CC2)c1 (centres undefined)
654	CC(=O)c1cccc(NC(=O)c2cc(C)nc3ccccc23)c1
879	CCn1cc(-c2nc(CC(=O)Nc3ccc(C#N)cc3)cs2)c2cccnc21
792	COc1ccc(S(=O)(=O)N2C[C@@H]3C[C@H](NC(=O)c4cccs4)[C@H]2C3)cc1Cl
818	O=c1c(NCCC2=CCCCC2)nc2ccncc2n1Cc1ccccc1
723	CCCn1c(CCNC(=O)c2ccc(CC)cc2)nc2cccnc21
879	CC1=C(c2ccc(F)cc2)S(=O)(=O)N=C1N1CCCN(C(=O)CCC(C)C)CC1
814	Cc1cc(C)cc(N2CCC(NC(=O)CC(C)C)C2=O)c1 (centres undefined)
724	O=C(Nc1ccc(-c2nnc3n2CCCC3)cc1)c1ccc(Cl)cc1
887	CN(C)c1ccc(-c2nc3cnccn3c2Nc2cccc(C(F)(F)F)c2)cc1
646	Cc1ccc(Sc2ccc(N3CCC(C(=O)N4CCN(c5ccccn5)CC4)CC3)nn2)cc1
